Laboratory results reported in BindingDB's records for doi:10.1021/np200603g (Yunnan University, 2011).

Target: T1, Programmed cell death protein 4 (Homo sapiens, UniProt Q53EL6)
T1 sequence (Q53EL6 whole entry): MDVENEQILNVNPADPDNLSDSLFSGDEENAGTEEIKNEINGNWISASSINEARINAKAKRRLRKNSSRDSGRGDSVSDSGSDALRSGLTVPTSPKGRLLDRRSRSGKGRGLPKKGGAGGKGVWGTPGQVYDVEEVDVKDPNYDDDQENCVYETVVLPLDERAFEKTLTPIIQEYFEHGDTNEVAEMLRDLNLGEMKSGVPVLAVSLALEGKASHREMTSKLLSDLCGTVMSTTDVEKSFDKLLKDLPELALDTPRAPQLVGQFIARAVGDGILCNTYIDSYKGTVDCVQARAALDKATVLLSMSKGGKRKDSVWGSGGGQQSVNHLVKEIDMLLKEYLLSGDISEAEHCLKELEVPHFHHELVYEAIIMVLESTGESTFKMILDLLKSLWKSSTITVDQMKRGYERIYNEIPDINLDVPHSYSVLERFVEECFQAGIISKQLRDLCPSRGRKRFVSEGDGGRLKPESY
Assay: Stabilization of Pdcd4 expressed in human HEK293 cells assessed as inhibition of TPA-induced degradation by luciferase reporter assay

## Nc1ncnc2c1ccn2[C@@H]1O[C@H](CO)[C@@H](O)[C@H]1O ['2-(4-AMINO-PYRROLO[2,3-D]PYRIMIDIN-7-YL)-5-HYDROXYMETHYL-TETRAHYDRO-FURAN-3,4-DIOL]
  IC50: 880 nM
